Reference: PubChem BioAssay AID1963437 (Molecular Pharmacology Branch, DTP, NCI, 2024)

Test system: OVCAR-8 complex spheroid, growth inhibition
Test: Anticancer human tumor OVCAR-8 cell line growth inhibition [Asc];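 note: spheroids exposed to agents for 7 days before readout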;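 for viability, T/C: percent viability relative to DMSO vehicle wells taken as 100%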
Conditions: for IC50: curve of first compound; for viability, T/C: stronger effect = lower value
In short: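 Complex spheroids combining tumor cells with HUVEC endothelial cells and human MSCs, at 37 degrees C, 5% CO2; agents tested alone or combined, half-log dilutions from at or near clinical Cmax, or 10 microM if Cmax unknown.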

[1] = second compound 0.00316 µM, first compound 0.0316 µM
[2] = second compound 0.00316 µM, first compound 0.1 µM
[3] = second compound 0.01 µM, first compound 0.0316 µM
[4] = second compound 0.01 µM, first compound 0.1 µM
[5] = second compound 0.0316 µM, first compound 0.0316 µM
[6] = second compound 0.0316 µM, first compound 0.1 µM
[7] = second compound 0.1 µM, first compound 0.0316 µM
[8] = second compound 0.1 µM, first compound 0.1 µM
[9] = second compound 0.316 µM, first compound 0.0316 µM
[10] = second compound 0.316 µM, first compound 0.1 µM
[11] = second compound 1 µM, first compound 0.0316 µM
[12] = second compound 1 µM, first compound 0.1 µM

With `Cc1nc(N2CCC3(CC2)COC(C)C3N)c(CO)nc1Sc1ccnc(N)c1Cl` (stereo unspecified) + CCN1C(C(=O)NC23CCC(C(=O)O)(CC2)CC3)C(c2cccc(Cl)c2F)C2(C(=O)Nc3cc(Cl)ccc32)C12CCCCC2 the IC50 (second compound 0.00949 µM) was > 3 µM, the IC50 (second compound 0.03 µM) was > 3 µM and the IC50 (second compound 0.0949 µM) was > 3 µM. The IC50 (second compound 0.3 µM) was > 3 µM, the IC50 (second compound 0.949 µM) was > 3 µM and the IC50 (second compound 3 µM) was > 3 µM. For the same compound, the viability, T/C (second compound 0.00949 µM, first compound 0.00949 µM) was 101%, the viability, T/C (second compound 0.00949 µM, first compound 0.03 µM) was 122% and the viability, T/C (second compound 0.00949 µM, first compound 0.0949 µM) was 152%. It also gave a viability, T/C (second compound 0.00949 µM, first compound 0.3 µM) of 216%, a viability, T/C (second compound 0.00949 µM, first compound 0.949 µM) of 263% and a viability, T/C (second compound 0.00949 µM, first compound 3 µM) of 209%. The viability, T/C (second compound 0.03 µM, first compound 0.00949 µM) was 108%, the viability, T/C (second compound 0.03 µM, first compound 0.03 µM) was 139% and the viability, T/C (second compound 0.03 µM, first compound 0.0949 µM) was 142%. For the same compound, the viability, T/C (second compound 0.03 µM, first compound 0.3 µM) was 204%, the viability, T/C (second compound 0.03 µM, first compound 0.949 µM) was 241% and the viability, T/C (second compound 0.03 µM, first compound 3 µM) was 221%. The viability, T/C (second compound 0.0949 µM, first compound 0.00949 µM) was 103%, the viability, T/C (second compound 0.0949 µM, first compound 0.03 µM) was 117% and the viability, T/C (second compound 0.0949 µM, first compound 0.0949 µM) was 154%. For the same compound, the viability, T/C (second compound 0.0949 µM, first compound 0.3 µM) was 200%, the viability, T/C (second compound 0.0949 µM, first compound 0.949 µM) was 244% and the viability, T/C (second compound 0.0949 µM, first compound 3 µM) was 228%. The viability, T/C (second compound 0.3 µM, first compound 0.00949 µM) was 115%, the viability, T/C (second compound 0.3 µM, first compound 0.03 µM) was 126% and the viability, T/C (second compound 0.3 µM, first compound 0.0949 µM) was 153%. It also gave a viability, T/C (second compound 0.3 µM, first compound 0.3 µM) of 221%, a viability, T/C (second compound 0.3 µM, first compound 0.949 µM) of 251% and a viability, T/C (second compound 0.3 µM, first compound 3 µM) of 232%. The viability, T/C (second compound 0.949 µM, first compound 0.00949 µM) was 106%, the viability, T/C (second compound 0.949 µM, first compound 0.03 µM) was 101% and the viability, T/C (second compound 0.949 µM, first compound 0.0949 µM) was 175%. It also gave a viability, T/C (second compound 0.949 µM, first compound 0.3 µM) of 229%, a viability, T/C (second compound 0.949 µM, first compound 0.949 µM) of 223% and a viability, T/C (second compound 0.949 µM, first compound 3 µM) of 214%. It also gave a viability, T/C (second compound 3 µM, first compound 0.00949 µM) of 125%, a viability, T/C (second compound 3 µM, first compound 0.03 µM) of 140% and a viability, T/C (second compound 3 µM, first compound 0.0949 µM) of 171%. The viability, T/C (second compound 3 µM, first compound 0.3 µM) was 214%, the viability, T/C (second compound 3 µM, first compound 0.949 µM) was 192% and the viability, T/C (second compound 3 µM, first compound 3 µM) was 169%.
With `Cn1ncnc1[C@H]1c2n[nH]c(=O)c3cc(F)cc(c23)N[C@@H]1c1ccc(F)cc1` + CNC(C)C(=O)NC1CN(S(=O)(=O)c2cccc(S(=O)(=O)N3CCC4CCC(C(=O)NC(c5ccccc5)c5ccccc5)N4C(=O)C(NC(=O)C(C)NC)C3)c2)CCC2CCC(C(=O)NC(c3ccccc3)c3ccccc3)N2C1=O the IC50 (second compound 0.00316 µM) was < 0.000316 µM, the IC50 (second compound 0.01 µM) was > 0.1 µM and the IC50 (second compound 0.0316 µM) was > 0.1 µM. The IC50 (second compound 0.1 µM) was > 0.1 µM, the IC50 (second compound 0.316 µM) was > 0.1 µM and the IC50 (second compound 1 µM) was > 0.1 µM. For the same compound, the viability, T/C (second compound 0.00316 µM, first compound 0.000316 µM) was 1.94%, the viability, T/C (second compound 0.00316 µM, first compound 0.001 µM) was 1.14% and the viability, T/C (second compound 0.00316 µM, first compound 0.00316 µM) was 0.66%. It also gave a viability, T/C (second compound 0.00316 µM, first compound 0.01 µM) of 1.15%, a viability, T/C [1] of 0.71% and a viability, T/C [2] of 0.74%. For the same compound, the viability, T/C (second compound 0.01 µM, first compound 0.000316 µM) was 106%, the viability, T/C (second compound 0.01 µM, first compound 0.001 µM) was 100% and the viability, T/C (second compound 0.01 µM, first compound 0.00316 µM) was 102%. The viability, T/C (second compound 0.01 µM, first compound 0.01 µM) was 109%, the viability, T/C [3] was 104% and the viability, T/C [4] was 120%. For the same compound, the viability, T/C (second compound 0.0316 µM, first compound 0.000316 µM) was 91.7%, the viability, T/C (second compound 0.0316 µM, first compound 0.001 µM) was 106% and the viability, T/C (second compound 0.0316 µM, first compound 0.00316 µM) was 91.9%. It also gave a viability, T/C (second compound 0.0316 µM, first compound 0.01 µM) of 97.1%, a viability, T/C [5] of 99.9% and a viability, T/C [6] of 95.5%. The viability, T/C (second compound 0.1 µM, first compound 0.000316 µM) was 106%, the viability, T/C (second compound 0.1 µM, first compound 0.001 µM) was 101% and the viability, T/C (second compound 0.1 µM, first compound 0.00316 µM) was 87.2%. It also gave a viability, T/C (second compound 0.1 µM, first compound 0.01 µM) of 95.1%, a viability, T/C [7] of 98.9% and a viability, T/C [8] of 94.6%. The viability, T/C (second compound 0.316 µM, first compound 0.000316 µM) was 76.5%, the viability, T/C (second compound 0.316 µM, first compound 0.001 µM) was 79.7% and the viability, T/C (second compound 0.316 µM, first compound 0.00316 µM) was 84.5%. The viability, T/C (second compound 0.316 µM, first compound 0.01 µM) was 107%, the viability, T/C [9] was 97.6% and the viability, T/C [10] was 85.4%. For the same compound, the viability, T/C (second compound 1 µM, first compound 0.000316 µM) was 69.5%, the viability, T/C (second compound 1 µM, first compound 0.001 µM) was 81.3% and the viability, T/C (second compound 1 µM, first compound 0.00316 µM) was 94.9%. For the same compound, the viability, T/C (second compound 1 µM, first compound 0.01 µM) was 86.4%, the viability, T/C [11] was 96.2% and the viability, T/C [12] was 95.5%.
In the case of `O=C(c1cc(Cc2n[nH]c(=O)c3ccccc23)ccc1F)N1CCN(C(=O)C2CC2)CC1` + CNC(C)C(=O)NC1CN(S(=O)(=O)c2cccc(S(=O)(=O)N3CCC4CCC(C(=O)NC(c5ccccc5)c5ccccc5)N4C(=O)C(NC(=O)C(C)NC)C3)c2)CCC2CCC(C(=O)NC(c3ccccc3)c3ccccc3)N2C1=O, the IC50 (second compound 0.00316 µM) is reported as < 0.0316 µM, the IC50 (second compound 0.01 µM) is reported as > 10 µM and the IC50 (second compound 0.0316 µM) is reported as > 10 µM. The IC50 (second compound 0.1 µM) was > 10 µM, the IC50 (second compound 0.316 µM) was 9.9 µM and the IC50 (second compound 1 µM) was 6.84 µM. For the same compound, the viability, T/C [1] was 0.81%, the viability, T/C [2] was 1.08% and the viability, T/C (second compound 0.00316 µM, first compound 0.316 µM) was 0.69%. The viability, T/C (second compound 0.00316 µM, first compound 1 µM) was 1.07%, the viability, T/C (second compound 0.00316 µM, first compound 3.16 µM) was 1.9% and the viability, T/C (second compound 0.00316 µM, first compound 10 µM) was 0.51%. For the same compound, the viability, T/C [3] was 111%, the viability, T/C [4] was 102% and the viability, T/C (second compound 0.01 µM, first compound 0.316 µM) was 101%. For the same compound, the viability, T/C (second compound 0.01 µM, first compound 1 µM) was 110%, the viability, T/C (second compound 0.01 µM, first compound 3.16 µM) was 112% and the viability, T/C (second compound 0.01 µM, first compound 10 µM) was 79.2%. For the same compound, the viability, T/C [5] was 94%, the viability, T/C [6] was 99.3% and the viability, T/C (second compound 0.0316 µM, first compound 0.316 µM) was 101%. The viability, T/C (second compound 0.0316 µM, first compound 1 µM) was 94.7%, the viability, T/C (second compound 0.0316 µM, first compound 3.16 µM) was 103% and the viability, T/C (second compound 0.0316 µM, first compound 10 µM) was 87%. The viability, T/C [7] was 80.3%, the viability, T/C [8] was 86.4% and the viability, T/C (second compound 0.1 µM, first compound 0.316 µM) was 88.6%. The viability, T/C (second compound 0.1 µM, first compound 1 µM) was 101%, the viability, T/C (second compound 0.1 µM, first compound 3.16 µM) was 83.9% and the viability, T/C (second compound 0.1 µM, first compound 10 µM) was 79.1%. The viability, T/C [9] was 83.7%, the viability, T/C [10] was 100% and the viability, T/C (second compound 0.316 µM, first compound 0.316 µM) was 90.4%. For the same compound, the viability, T/C (second compound 0.316 µM, first compound 1 µM) was 82.4%, the viability, T/C (second compound 0.316 µM, first compound 3.16 µM) was 90.9% and the viability, T/C (second compound 0.316 µM, first compound 10 µM) was 49.7%. For the same compound, the viability, T/C [11] was 79.2%, the viability, T/C [12] was 90.7% and the viability, T/C (second compound 1 µM, first compound 0.316 µM) was 99.5%. For the same compound, the viability, T/C (second compound 1 µM, first compound 1 µM) was 90.3%, the viability, T/C (second compound 1 µM, first compound 3.16 µM) was 92.5% and the viability, T/C (second compound 1 µM, first compound 10 µM) was 29.8%.
